Data from patent US7846925B2, “Azolidinone-vinyl fused-benzene derivatives” (Merck Serono SA, priority 2002, dated 2010).

Assays:
[1] = system: C5a-mediated AKT phosphorylation; experiment: Cell based ELISA: Akt/PKB phosphorylation in Raw 264-7 macrophages after stimulation with C5a; conditions: Mus musculus, RAW264.7, compound at 1 μM, 50 nM C5a, read-out: percentage of inhibition of C5a-mediated AKT phosphorylation
Procedure: b) Cell Based ELISA to Monitor PI3K Inhibition:
Measurement of Akt/PKB phosphorylation in macrophages after stimulation with C5a: Raw 264: Raw 264-7 macrophages (cultured in DMEM-F12 medium containing 10% Fetal Calf serum and antibiotics) are plated at 20'000 cells/well in a 96 MTP 24 h before cell stimulation. Previous to the stimulation with 50 nM of Complement 5a (C5a; which is a well known chemokine which stimulates the used cells) during 5 minutes, Cells are serum starved for 2 h, and pretreated with inhibitors for 20 minutes. After stimulation cells are fixed in 4% formaldehyde for 20 minutes and washed 3 times in PBS containing 1% Triton X-100 (PBS/Triton). Endogenous peroxidase is blocked by a 20 minutes incubation in 0.6% H2O2 and 0.1% Sodium Azide in PBS/Triton and washed 3 times in PBS/Triton. Cells are then blocked by 60 minutes incubation with 10% fetal calf serum in PBS/Triton. Next, phosphorylated Atk/PKB is detected by an overnight incubation at 4° C. with first antibody (anti phospho Serine 473 Akt 1HC, Cell Signaling) diluted 800-fold in PBS/Triton, containing 5% bovine serum albumin (BSA). After 3 washes in PBS/Triton, cells are incubated for 60 minutes with a peroxidase conjugated goat-anti-rabbit antibody (1/400 dilution in PBS/Triton, containing 5% BSA), washed 3 times in PBS/Triton, and 2 times in PBS and further incubated in 100 μl of substrate reagent solution (R&D) for 20 minutes.
The reaction is stopped by addition of 50 μl of 1 M H2SO4 and absorbance is read at 450 nm.
The values indicated reflect the percentage of inhibition of AKT phosphorylation as compared to basal level. Said values show a clear effect of the azolidinone-vinyl fused-benzene compounds on the activation of AKT phosphorylation in macrophages.

[2] = target: Human recombinant GST-PI3Kγ (Homo sapiens, UniProt P48736); experiment: High Throughput PI3K Lipid Kinase Assay (scintillation proximity assay); assay type: biochemical
Chain of Human recombinant GST-PI3Kγ (P48736 whole entry): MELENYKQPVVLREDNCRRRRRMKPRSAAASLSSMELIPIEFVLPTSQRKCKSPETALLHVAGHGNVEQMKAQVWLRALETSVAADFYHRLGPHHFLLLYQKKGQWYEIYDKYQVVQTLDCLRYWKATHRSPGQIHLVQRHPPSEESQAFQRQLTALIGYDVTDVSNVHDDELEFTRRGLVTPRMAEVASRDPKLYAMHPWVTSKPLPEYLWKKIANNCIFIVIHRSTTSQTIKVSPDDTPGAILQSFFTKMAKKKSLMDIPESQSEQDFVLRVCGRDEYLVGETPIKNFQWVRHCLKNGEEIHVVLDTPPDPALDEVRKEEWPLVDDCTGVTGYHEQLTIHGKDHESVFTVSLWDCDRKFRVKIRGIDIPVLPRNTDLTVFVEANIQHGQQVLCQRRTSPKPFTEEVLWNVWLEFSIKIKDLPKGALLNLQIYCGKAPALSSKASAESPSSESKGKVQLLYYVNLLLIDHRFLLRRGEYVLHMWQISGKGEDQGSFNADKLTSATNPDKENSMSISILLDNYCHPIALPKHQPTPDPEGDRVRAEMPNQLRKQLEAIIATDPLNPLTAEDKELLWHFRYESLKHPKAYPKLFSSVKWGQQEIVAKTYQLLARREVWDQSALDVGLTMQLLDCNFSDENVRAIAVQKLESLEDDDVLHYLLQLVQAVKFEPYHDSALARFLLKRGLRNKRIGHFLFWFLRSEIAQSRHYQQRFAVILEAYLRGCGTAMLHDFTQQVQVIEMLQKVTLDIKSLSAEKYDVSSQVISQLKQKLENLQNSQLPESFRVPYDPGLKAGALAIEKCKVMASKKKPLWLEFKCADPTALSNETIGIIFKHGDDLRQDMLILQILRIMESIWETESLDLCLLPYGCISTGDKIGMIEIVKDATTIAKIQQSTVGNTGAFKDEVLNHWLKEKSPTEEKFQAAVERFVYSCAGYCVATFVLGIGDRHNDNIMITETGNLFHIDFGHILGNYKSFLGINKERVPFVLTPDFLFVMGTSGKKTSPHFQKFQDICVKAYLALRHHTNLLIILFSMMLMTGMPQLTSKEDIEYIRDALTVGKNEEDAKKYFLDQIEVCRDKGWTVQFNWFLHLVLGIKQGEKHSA
Procedure: a) High Throughput PI3K Lipid Kinase Assay (Binding Assay):
The assay combines the scintillation proximity assay technology (SPA, Amersham) with the capacity of neomycin (a polycationic antibiotic) to bind phospholipids with high affinity and specificity. The Scintillation Proximity Assay is based on the properties of weakly emitting isotopes (such as ^3H, ^125I, ^33P). Coating SPA beads with neomycin allows the detection of phosphorylated lipid substrates after incubation with recombinant PI3K and radioactive ATP in the same well, by capturing the radioactive phospholipids to the SPA beads through their specific binding to neomycin.
To a 384 wells MTP containing 5 μl of the test compound of formula (I) (solubilized in 6% DMSO; to yield a concentration of 100, 30, 10, 3, 1, 0.3, 0.1, 0.03, 0.01, 0.001 μM of the test compound), the following assay components are added. 1) 5 μl (58 ng) of Human recombinant GST-PI3Kγ (in Hepes 40 mM, pH 7.4, DTT 1 mM and ethyleneglycol 5%) 2) 10 μl of lipid micelles and 3) 10 μl of Kinase buffer ([^33P]γATP 45 μM/60 nCi, MgCl2 30 mM, DTT 1 mM, β-Glycerophosphate 1 mM, Na3VO4 100 μM, Na Cholate 0.3%, in Hepes 40 mM, pH 7.4). After incubation at room temperature for 180 minutes, with gentle agitation, the reaction is stopped by addition of 60 μl of a solution containing 100 μg of neomycin-coated PVT SPA beads in PBS containing ATP 10 mM and EDTA 5 mM. The assay is further incubated at room temperature for 60 minutes with gentle agitation to allow binding of phospholipids to neomycin-SPA beads. After precipitation of the neomycin-coated PVT SPA beads for 5 minutes at 1500×g, radioactive PtdIns(3)P is quantified by scintillation counting in a Wallac MicroBeta™ plate counter.
The values indicated in respect of PI3Kγ refer to the IC50 (μM), i.e. the amount necessary to achieve 50% inhibition of said target. Said values show a considerable potency of the azolidinone-vinyl fused-benzene compounds with regard to PI3Kγ.

[3] = in vivo; cited from earlier work
CK2 protein kinase = CK2 protein kinase (Homo sapiens, UniProt P68400); conditions: cited from earlier work
Chain of CK2 protein kinase (P68400 whole entry): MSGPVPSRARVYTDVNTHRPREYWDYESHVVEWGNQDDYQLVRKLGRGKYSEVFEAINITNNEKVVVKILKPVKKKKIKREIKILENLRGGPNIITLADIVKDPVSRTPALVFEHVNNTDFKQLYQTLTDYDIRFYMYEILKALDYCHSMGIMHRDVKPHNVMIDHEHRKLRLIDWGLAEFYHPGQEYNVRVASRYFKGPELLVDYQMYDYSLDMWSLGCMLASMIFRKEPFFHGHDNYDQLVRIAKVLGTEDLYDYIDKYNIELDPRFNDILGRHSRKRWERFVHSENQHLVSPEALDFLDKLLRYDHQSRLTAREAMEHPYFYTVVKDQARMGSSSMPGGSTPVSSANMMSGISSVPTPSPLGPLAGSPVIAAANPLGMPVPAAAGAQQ

phospholipases = conditions: cited from earlier work
neutrophil = conditions: cited from earlier work
Class I PI3-kinases = conditions: read-out: IC50 against each of these PI3-kinases; cited from earlier work

`O=C1NC(=O)/C(=C/c2ccc3c(c2)OCO3)S1` [Example 1, 5-(1,3-benzodioxol-5-ylmethylene)-1,3-thiazolidine-2,4-dione] showed an inhibition at 1 µM [1] of ~100%.

With `O=C1NC(=O)C(=Cc2ccc3ncnc(N4CCCCC4)c3c2)S1` [Example 19, 5-[(4-piperidin-1-ylquinazolin-6-yl)methylene]-1,3-thiazolidine-2,4-dione] the inhibition at 1 µM [1] was ~100%.

For `N=C1NC(=O)/C(=C/c2ccc3ncnc(N4CCCCC4)c3c2)S1` [Example 41, 2-Imino-5-(4-piperidine-quinazolin-6-ylmethylene)-thiazolidin-4-one], the IC50 [2] was < 1000 nM.

In the case of `COc1ccccc1Cn1cnc2ccc(C=C3SC(=O)NC3=O)cc21` [Example 61, 5-{[1-(2-methoxybenzyl)-1H-benzimidazol-6-yl]methylene}-1,3-thiazolidine-2,4-dione], the IC50 [2] is reported as < 1000 nM.

With `N=C1NC(=O)/C(=C/c2ccc3nccnc3c2)S1` [Example 66, 2-Imino-5-quinoxalin-6-ylmethylene-thiazolidin-4-one] the IC50 [2] was < 1000 nM and the inhibition at 1 µM [1] was ~100%.

With `O=C1NC(=O)/C(=C/c2ccc3occ(/C=C/C(=O)N4CCCCC4)c3c2)S1` [Example 73, 5-[3-(3-Oxo-3-piperidin-1-yl-propenyl)-benzofuran-5-ylmethylene]-thiazolidine-2,4-dione] the IC50 [2] was < 1000 nM.

With `O=C1NC(=O)/C(=C/c2ccc3c(c2)N(Cc2ccccc2)C(=O)CO3)S1` [Example 103, 5-(4-Benzyl-3-oxo-3,4-dihydro-2H-benzo[1,4]oxazin-6-ylmethylene)-thiazolidine-2,4-dione] the IC50 [2] was < 1000 nM.

In the case of `O=C1NC(=O)/C(=C/c2ccc3nsnc3c2)S1` [Example 107, 5-Benzo[1,2,5]thiadiazol-5-ylmethylene-thiazolidine-2,4-ione], the IC50 [2] is reported as < 1000 nM and the inhibition at 1 µM [1] is reported as ~100%.

For `COC(=O)c1cc2ccc(/C=C3\SC(=O)NC3=O)cc2o1` [Example 110, 5-(2-Carboxymethyl-benzofuran-6-ylmethylene)-thiazolidine-2,4-dione], the IC50 [2] was < 1000 nM.

For `CC(C)(C)c1cc(/C=C2\SC(=N)NC2=O)cc2c1OCC2(C)C` [JA], the “activity in a paw swelling assay” value [3] is listed as “inactive”.

In the case of `O=c1cc(N2CCOCC2)oc2c(-c3ccccc3)cccc12` [LY294002], the IC50 (CK2 protein kinase) is given as 5000 to 10000 nM, the “inhibitory activity on phospholipases” value (phospholipases) is given as “some inhibitory activity” and the neutrophil migration (neutrophil) is given as “block”. The superoxide release (neutrophil) was “block” and the IC50 (Class I PI3-kinases) was 15000 to 20000 nM.
